Data from patent publication US8461328B2, “Tricyclic heterocyclic compounds, compositions and methods of use thereof” (Genentech, Inc., priority 2010, dated 2013).

How the values were obtained:
Assay type in all cases: biochemical
JAK2 = target: T1, JAK2 (Homo sapiens, UniProt O60674); experiment: JAK2 inhibition (Table 4); details: read-out: JAK2 Ki
T1 construct: made in house; host or cells: SF9 insect cells (baculovirus)

TYK2 = target: T2, TYK2 (Homo sapiens, UniProt P29597); experiment: TYK2 inhibition (Table 4)
T2 construct: made in house; host or cells: SF9 insect cells (baculovirus)
T2 sequence (P29597 873-1187): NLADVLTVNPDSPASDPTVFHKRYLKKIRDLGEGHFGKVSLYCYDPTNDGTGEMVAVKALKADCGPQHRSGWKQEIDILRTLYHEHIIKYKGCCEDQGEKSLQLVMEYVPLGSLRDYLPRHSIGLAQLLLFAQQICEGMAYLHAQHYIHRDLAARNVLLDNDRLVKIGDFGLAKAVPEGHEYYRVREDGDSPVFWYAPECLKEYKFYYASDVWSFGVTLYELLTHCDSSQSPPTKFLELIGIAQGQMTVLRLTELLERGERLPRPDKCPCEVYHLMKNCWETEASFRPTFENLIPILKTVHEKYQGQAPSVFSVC

JAK3 = target: T3, JAK3 (Homo sapiens, UniProt P52333); experiment: JAK3 inhibition (Table 4); details: read-out: JAK3 Ki
T3 construct: made in house; host or cells: SF9 insect cells (baculovirus)

JAK1 = target: T4, JAK1 (Homo sapiens, UniProt P23458); experiment: JAK1 inhibition (Table 4); details: read-out: JAK1 Ki
T4 construct: made in house; host or cells: SF9 insect cells (baculovirus)
T4 sequence (P23458 852-1154): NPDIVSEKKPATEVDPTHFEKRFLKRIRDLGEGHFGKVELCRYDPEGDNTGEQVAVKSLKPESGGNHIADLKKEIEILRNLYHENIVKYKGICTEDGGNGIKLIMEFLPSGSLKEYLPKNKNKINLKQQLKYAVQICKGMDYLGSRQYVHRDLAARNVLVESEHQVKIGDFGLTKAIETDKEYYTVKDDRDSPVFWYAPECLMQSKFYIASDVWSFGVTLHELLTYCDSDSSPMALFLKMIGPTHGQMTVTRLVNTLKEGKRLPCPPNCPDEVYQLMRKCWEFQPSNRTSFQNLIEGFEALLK

T1 sequence (O60674 812-1132): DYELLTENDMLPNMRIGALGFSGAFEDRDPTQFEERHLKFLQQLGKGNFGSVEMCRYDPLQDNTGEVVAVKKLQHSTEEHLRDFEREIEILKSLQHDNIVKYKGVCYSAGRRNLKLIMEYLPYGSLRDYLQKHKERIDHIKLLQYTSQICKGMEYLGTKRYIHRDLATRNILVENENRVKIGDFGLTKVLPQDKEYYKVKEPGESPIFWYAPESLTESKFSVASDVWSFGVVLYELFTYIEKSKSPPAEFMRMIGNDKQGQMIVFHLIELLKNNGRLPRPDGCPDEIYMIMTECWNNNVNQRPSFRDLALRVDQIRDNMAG
T3 sequence (P52333 783-1124): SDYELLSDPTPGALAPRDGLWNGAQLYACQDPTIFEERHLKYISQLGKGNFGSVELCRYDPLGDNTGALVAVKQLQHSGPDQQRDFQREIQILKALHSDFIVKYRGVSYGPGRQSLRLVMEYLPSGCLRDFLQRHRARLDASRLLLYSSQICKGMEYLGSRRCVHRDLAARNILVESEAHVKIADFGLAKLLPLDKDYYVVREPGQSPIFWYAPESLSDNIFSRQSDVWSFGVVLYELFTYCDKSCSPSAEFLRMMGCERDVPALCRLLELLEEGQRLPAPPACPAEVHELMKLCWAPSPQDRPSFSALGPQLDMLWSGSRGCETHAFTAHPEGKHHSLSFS

Compound	Ki (JAK2) [nM]	Ki (TYK2) [nM]	Ki (JAK3) [nM]	Ki (JAK1) [nM]
C[C@@H](O)c1nc2cnc3[nH]ccc3c2n1[C@H]1CC[C@H](S(C)(=O)=O)CC1 [Example 650, Trans (R)-1-[1-(4-methanesulfonyl-cyclohexyl)-1,6-dihydro-1,2,3,5,6-tetraaza-as-indacen-2-yl]-ethanol]	113	52	756	10.5
COCC(=O)NCCc1nc2cnc3[nH]ccc3c2n1C1CCN(CCC#N)CC1 [Example 372, N-(2-{1-[1-(2-Cyano-ethyl)-piperidin-4-yl]-1,6-dihydro-1,3,5,6-tetraaza-as-indacen-2-yl}-ethyl)-2-methoxy-acetamide]	22	135	28.8	4.59
Cc1nc2cnc3[nH]ccc3c2n1C1CC2CCC1C2 (centres unmarked) [Example 121, 1-Bicyclo[2.2.1]hept-2-yl-2-methyl-1,6-dihydro-1,2,3,5,6-tetraaza-as-indacene]	2.78	5.09	9.31	1.01
CC(O)c1nc2cnc3[nH]ccc3c2n1C1CC2CCC1O2 (centres unmarked) [Example 938, 1-[1-(7-Oxa-bicyclo[2.2.1]hept-2-yl)-1,6-dihydro-1,3,5,6-tetraaza-as-indacen-2-yl]-ethanol]	263	175	119	88.3
CC(C)(C#N)CN1CCC(n2cnc3cnc4[nH]ccc4c32)CC1 [Example 586, 2,2-Dimethyl-3-[4-(6H-1,2,3,5,6-tetraaza-as-indacen-1-yl)-piperidin-1-yl]-propionitrile]	1.6	9.73	23.3	1.09
C[C@@H](O)c1nc2cnc3[nH]ccc3c2n1[C@H]1CC[C@H](C#N)CC1 [Example 641, trans 4-[2-((R)-1-Hydroxy-ethyl)-6H-1,2,3,5,6-tetraaza-as-indacen-1-yl]-cyclohexanecarbonitrile]	66.5	12.4	254	1.87
CC(=O)NCCOC(=O)N[C@H]1CC[C@H](n2cnc3cnc4[nH]ccc4c32)CC1 [Example 599, Trans[4-(6H-1,2,3,5,6-tetraaza-as-indacen-1-yl)-cyclohexyl]-carbamic acid 2-acetylamino-ethyl ester]	26.4	120	186	7.68
CCS(=O)(=O)N1CCC(n2cnc3cnc4[nH]ccc4c32)CC1 [Example 442, 1-(1-Ethanesulfonyl-piperidin-4-yl)-1,6-dihydro-1,3,5,6-tetraaza-as-indacene]	4.02	18.8	105	2.87
CC(O)c1nc2cnc3[nH]ccc3c2n1C1CCN(Cc2ccnc(C#N)c2)CC1 (racemic) [Example 350, 4-{4-[2-(1-Hydroxy-ethyl)-6H-1,3,5,6-tetraaza-as-indacen-1-yl]-piperidin-1-ylmethyl}-pyridine-2-carbonitrile]	50.4	269	178	6.44
C[C@@H](O)c1nc2cnc3[nH]ccc3c2n1C1CCN(Cc2cnn(C)c2)CC1 [Example 818, (R)-1-{1-[1-(1-Methyl-1H-pyrazol-4-ylmethyl)-piperidin-4-yl]-1,6-dihydro-1,3,5,6-tetraaza-as-indacen-2-yl}-ethanol]	383	1380	117	9.45
O=C(Cc1nc2cnc3[nH]ccc3c2n1C1CCCOC1)NC1CCOCC1 (racemic) [Example 983, N-(Tetrahydro-pyran-4-yl)-2-[1-(tetrahydro-pyran-3-yl)-1,6-dihydro-1,3,5,6-tetraaza-as-indacen-2-yl]-acetamide]	157	300	100	37.6
N#CCCN1CCC(n2c(COCC(F)(F)F)nc3cnc4[nH]ccc4c32)CC1 [Example 834, 3-{4-[2-(2,2,2-Trifluoro-ethoxymethyl)-6H-1,3,5,6-tetraaza-as-indacen-1-yl]-piperidin-1-yl}-propionitrile]	117	637	85.4	33.5
FC(F)(F)c1nc2cnc3[nH]ccc3c2n1[C@@H]1CCCNC1 [Example 301, 1-(R)-Piperidin-3-yl-2-trifluoromethyl-1,6-dihydro-1,3,5,6-tetraaza-as-indacene]	1300	2160	1450	373
CC1(n2nnc3cnc4[nH]ccc4c32)CCN(S(C)(=O)=O)CC1 [Example 583, 1-(1-Methanesulfonyl-4-methyl-piperidine-4-yl)-1,6-dihydro-1,2,3,5,6-pentaaza-as-indacen-1-yl]	31.9	173	363	4.36
[3-(6H-1,3,5,6-Tetraaza-as-indacen-1-yl)-cyclopentyl]-carbamic acid 2,2,2-trifluoro-ethyl ester [Example 733]	4.83	37.8	5.88	0.77
CN(C)C(=O)CCc1nc2cnc3[nH]ccc3c2n1C1CCCCC1 [Example 803, 3-(1-Cyclohexyl-1,6-dihydro-1,3,5,6-tetraaza-as-indacen-2-yl)-N,N-dimethyl-propionamide]	44	76.8	25.7	16.1
Cc1nc2cnc3[nH]ccc3c2n1[C@H]1CC[C@@H](NCC(F)(F)F)C1 [Example 719, [(1R,3S)-3-(2-Methyl-6H-1,3,5,6-tetraaza-as-indacen-1-yl)-cyclopentyl]-(2,2,2-trifluoro-ethyl)-amine]	23.2	30.4	22	4.07
CCN1CCC(n2c([C@@H](C)O)nc3cnc4[nH]ccc4c32)C(F)(F)C1 (single isomer, unassigned) [Example 880]	19.4	24.7	4.97	1.95
CN(C)C(=O)CNC(=O)Cc1nc2cnc3[nH]ccc3c2n1C1CCCOC1 (racemic) [Example 970, N-Dimethylcarbamoylmethyl-2-[1-(tetrahydro-pyran-3-yl)-1,6-dihydro-1,3,5,6-tetraaza-as-indacen-2-yl]-acetamide]	124	245	206	34.3
COC[C@H]1CC[C@H](n2c(CO)nc3cnc4[nH]ccc4c32)CC1 [Example 636, Trans[1-(4-methoxymethyl-cyclohexyl)-1,6-dihydro-1,2,3,5,6-tetraaza-as-indacen-2-yl]-methanol]	15.6	6.5	28	3.82
CC(=O)NCc1nc2cnc3[nH]ccc3c2n1C1CCN(CCF)CC1 [Example 921, N-{1-[1-(2-Fluoro-ethyl)-piperidin-4-yl]-1,6-dihydro-1,3,5,6-tetraaza-as-indacen-2-ylmethyl}-acetamide]	116	191	70.9	13.1
c1cc2c(ncc3ncn([C@H]4CCCNC4)c32)[nH]1 [Example 364, (S)-1-Piperidin-3-yl-1,6-dihydro-1,3,5,6-tetraaza-as-indacene]	179	207	171	36.9
CS(=O)(=O)NCc1nc2cnc3[nH]ccc3c2n1C1CC2CCC1O2 (centres unmarked) [Example 925, N-[1-(7-Oxa-bicyclo[2.2.1]hept-2-yl)-1,6-dihydro-1,3,5,6-tetraaza-as-indacen-2-ylmethyl]-methanesulfonamide]	252	338	555	30
N#CCC(=O)N1CCC[C@@H](n2c(C(F)(F)F)nc3cnc4[nH]ccc4c32)C1 [Example 302, 3-Oxo-3-[(R)-3-(2-trifluoromethyl-6H-1,3,5,6-tetraaza-as-indacen-1-yl)-piperidin-1-yl]-propionitrile]	13.7	71.7	66.4	9.45
C[C@@H](O)c1nc2cnc3[nH]ccc3c2n1N1CCOCC1 [Example 891, (R)-1-(1-Morpholin-4-yl-1,6-dihydro-1,3,5,6-tetraaza-as-indacen-2-yl)-ethanol]	543	165	240	65
CC(C)NC(=O)Cc1nc2cnc3[nH]ccc3c2n1C1CCNCC1 [Example 261, N-Isopropyl-2-(1-piperidin-4-yl-1,6-dihydro-1,3,5,6-tetraaza-as-indacen-2-yl)-acetamide]	426	678	108	39
OCCc1nc2cnc3[nH]ccc3c2n1[C@H]1CCCOC1 [Example 859, (S)-2-[1-(Tetrahydro-pyran-3-yl)-1,6-dihydro-1,3,5,6-tetraaza-as-indacen-2-yl]-ethanol]	53	68.4	107	10.1
(R)-1-{1-[1-(3,5-Dimethyl-1H-pyrazol-4-ylmethyl)-piperidin-4-yl]-1,6-dihydro-1,3,5,6-tetraaza-as-indacen-2-yl}-ethanol [Example 904]	1340	2650	1040	211
C[C@@H](O)c1nc2cnc3[nH]ccc3c2n1[C@@H]1CCCO1 [Example 659, (R)-1-[(S)-1-(Tetrahydro-furan-2-yl)-1,6-dihydro-1,2,3,5,6-tetraaza-as-indacen-2-yl]-ethanol]	395	308	172	30.8
